Tested on: VRE
Assay: Kill kinetics assay, Example 7
Assay type: cell-based, Enterococcus spp.
Method: MRSA/VRE were grown overnight on Columbia SBA at 37° C. A few colonies of bacteria were then suspended in CAMHB and adjusted to an optical density of 0.08 to 0.10. The bacterial suspension was diluted 1:10. […] The tubes were incubated at 37° C. In order to determine the number of viable bacteria present at various time points, a 100 μL aliquot was removed from each tube and diluted in normal saline. Then, 100 μL of each dilution was spread onto colony count agar, in duplicate, and incubated for 48 h at 37° C. After 24 h the numbers of colonies present on each plate were counted and therefore the number of viable bacteria present in the original suspension enumerated. Plates were re-checked after 48 hours.

N=C(N/N=C/c1ccc(Cl)cc1)N/N=C/c1ccc(Cl)cc1 [NCL812, 1,3-bis[(E)-(4-chlorophenyl)methyleneamino]guanidine]
reduction in the viable count compared to the control (at 4 h): ~2 log10 | reduction in the viable count compared to the control (at 8 h): ~2.5 log10 | growth of bacteria versus control (at 24 h): no longer as significantly reduced in comparison to the control

— patent US10253002B2, “Compounds and methods of treating infections” (Neoculi Pty Ltd., priority 2013, dated 2019)
